For 27 compounds, IC50 and inhibition results are on record in ChEMBL document CHEMBL1133956, “Antagonists of the human CCR5 receptor as anti-HIV-1 agents. Part 3: a proposed pharmacophore model for 1-[N-(methyl)-N-(phenylsulfonyl)amino]-2-(phenyl)-4-[4-(substituted)piperidin-1-yl]butanes” (Bioorg Med Chem Lett, 2001).

Some results are limits rather than exact numbers.

Holding throughout (format): cell-based
In assay [1] the target is T1, C-C chemokine receptor type 5 (Homo sapiens, UniProt P51681). Briefly: Inhibition of [125I]-MIP-1 alpha binding to human CCR5 receptor expressed in Chinese hamster ovary (CHO) cells; completely inactive.
Target sequence in this assay (P51681 whole entry): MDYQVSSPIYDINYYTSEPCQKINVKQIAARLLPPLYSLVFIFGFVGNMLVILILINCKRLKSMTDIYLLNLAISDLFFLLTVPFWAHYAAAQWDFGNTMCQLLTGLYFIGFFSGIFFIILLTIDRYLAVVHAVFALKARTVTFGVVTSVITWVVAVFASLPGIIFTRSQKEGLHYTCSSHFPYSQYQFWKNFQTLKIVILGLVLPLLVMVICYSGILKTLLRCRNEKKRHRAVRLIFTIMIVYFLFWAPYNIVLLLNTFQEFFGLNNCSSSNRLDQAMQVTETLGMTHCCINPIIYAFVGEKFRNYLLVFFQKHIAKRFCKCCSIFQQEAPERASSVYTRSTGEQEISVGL
The target of assay [2] is T1, C-C chemokine receptor type 5. Briefly: Inhibition of [125I]-MIP-1 alpha binding to human CCR5 receptor expressed in Chinese hamster ovary (CHO) cells.
Target sequence in this assay (P51681 whole entry): as above
Assay [3] shares this target. Briefly: Inhibition of [125I]-MIP-1 alpha binding to human CCR5 receptor expressed in Chinese hamster ovary (CHO) cells at 1000 nM;.
Target sequence in this assay (P51681 whole entry, looked up): as the sequence (P51681 whole entry) above
For assay [4] the target is unchanged. Briefly: Inhibition of [125I]-MIP-1 alpha binding to human CCR5 receptor expressed in Chinese hamster ovary (CHO) cells at 1000 nM.
Target sequence in this assay (P51681 whole entry, looked up): as the sequence (P51681 whole entry) above

For orientation: IC50 means the concentration needed to halve the response being measured. Read a high IC50 as a need for much substance. Compound `CN(C[C@@H](CCc1ccc(-c2ccccc2)cn1)c1ccc(Cl)c(Cl)c1)S(=O)(=O)c1ccccc1` yielded a half-inhibitory concentration (IC50) in assay [1] above 10000 nM. With `CN(C[C@@H](CCN1CCC2(CC1)NC(=O)c1ccccc12)c1cccc(Cl)c1)S(=O)(=O)c1ccccc1`, in assay [2], the half-maximal inhibitory concentration (IC50) turned out to be 45 nM. In other words, the double-digit nanomolar range. `CN(C[C@@H](CCN1CCC(CCCc2ccccc2)CC1)c1cccc(Cl)c1)S(=O)(=O)c1ccccc1` showed an IC50 in assay [2] of 5 nM. Still for that read-out and setting: in the case of `CN(C[C@@H](CCN1CCC(CCc2ccccc2)CC1)c1cccc(Cl)c1)S(=O)(=O)c1ccccc1` it was 65 nM; in that of `CN(C[C@@H](CCN1CCN(c2ccccc2)CC1)c1cccc(Cl)c1)S(=O)(=O)c1ccccc1`, 700 nM.

For the compound `CN(CCc1ccccc1)CC[C@H](CN(C)S(=O)(=O)c1ccccc1)c1cccc(Cl)c1`, the half-inhibitory concentration (IC50) in assay [1] is above 10000 nM.

As for `CN(C[C@@H](CCN1CCC(c2ccc(F)cc2)CC1)c1cccc(Cl)c1)S(=O)(=O)c1ccccc1`, the IC50 in assay [2] worked out at 25 nM. That is a double-digit nanomolar value. For the compound `CN(C[C@@H](CCN1CCC2(CC1)Cc1ccccc1O2)c1cccc(Cl)c1)S(=O)(=O)c1ccccc1`, in assay [2], the IC50 came to 260 nM.

The compound `CN(C[C@@H](CCN1CCC(c2ccc(Cl)cc2)CC1)c1cccc(Cl)c1)S(=O)(=O)c1ccccc1` came in with an IC50 in assay [2] of 200 nM. What is called inhibition is the share of the control response that was lost under treatment. Lower therefore signals a weak effect. In turn, `CN(C[C@@H](CCN1CCC2(CC1)CC(=O)c1ccccc1O2)c1cccc(Cl)c1)S(=O)(=O)c1ccccc1` registered an inhibition in assay [3] of 24%. `Cc1ccccc1N1CCN(CC[C@H](CN(C)S(=O)(=O)c2ccccc2)c2cccc(Cl)c2)CC1` returned an IC50 in assay [2] of 2400 nM. Consider `Cc1ccccc1C1CCN(CC[C@H](CN(C)S(=O)(=O)c2ccccc2)c2cccc(Cl)c2)CC1`, for which the concentration for half-maximal inhibition (IC50) in assay [2] came out at 400 nM.

Compound `CN(C[C@@H](CCN1CCC2(CCc3ccccc32)CC1)c1cccc(Cl)c1)S(=O)(=O)c1ccccc1` registered an IC50 in assay [2] of 180 nM. Against the preceding compound, the IC50 is about 2.2-fold lower. For `CN(C[C@@H](CCN1CCC2(CC1)CNC(=O)c1ccccc12)c1cccc(Cl)c1)S(=O)(=O)c1ccccc1`, the IC50 in assay [2] stood at 35 nM. Against the preceding compound, the IC50 is about 5.1-fold lower. Still for that read-out and setting: to `CN1C(=O)c2ccccc2C12CCN(CC[C@H](CN(C)S(=O)(=O)c1ccccc1)c1cccc(Cl)c1)CC2` belongs 100 nM; to `CN(C[C@@H](CCN1CCC2(CC1)CC(O)c1ccccc12)c1cccc(Cl)c1)S(=O)(=O)c1ccccc1` (some centres not stated), 100 nM; to `CN(C[C@@H](CCN1CCC2(CC1)CC(=O)Nc1ccccc12)c1cccc(Cl)c1)S(=O)(=O)c1ccccc1`, 35 nM. In assay [2], `CN(C[C@@H](CCN1CCC2(CC1)CNc1ccccc12)c1cccc(Cl)c1)S(=O)(=O)c1ccccc1` returned a half-inhibitory concentration (IC50) of 50 nM. The IC50 values of the last two compounds are within 1.5-fold of each other. Regarding `CN(C[C@@H](CCN1CCCCC1)c1cccc(Cl)c1)S(=O)(=O)c1ccccc1`, the inhibition in assay [4] worked out at 27%. On to `CN(C[C@@H](CCN1CCC(c2cccc(C(F)(F)F)c2)CC1)c1cccc(Cl)c1)S(=O)(=O)c1ccccc1`, for which the IC50 in assay [2] came to 120 nM.

`CN(C[C@@H](CCc1ccc(-c2ccccc2)cc1)c1ccc(Cl)c(Cl)c1)S(=O)(=O)c1ccccc1` had a concentration for half-maximal inhibition (IC50) in assay [1] above 10000 nM. For `CN(C[C@@H](CCN1CCC(Cc2ccccc2)CC1)c1cccc(Cl)c1)S(=O)(=O)c1ccccc1`, in assay [2], the IC50 is 250 nM. Regarding `CN(C[C@@H](CCN1CCC2(CC1)CC(=O)c1ccccc12)c1cccc(Cl)c1)S(=O)(=O)c1ccccc1`, the concentration for half-maximal inhibition (IC50) in assay [2] is 5 nM. Against the preceding compound, the IC50 is about 50-fold lower. On the same count and under the same terms, in the case of `COc1ccccc1C1CCN(CC[C@H](CN(C)S(=O)(=O)c2ccccc2)c2cccc(Cl)c2)CC1` it was 70 nM.

Turning to `CN(C[C@@H](CCNCCc1ccccc1)c1cccc(Cl)c1)S(=O)(=O)c1ccccc1`, the IC50 in assay [1] is above 10000 nM.

Compound `CN(C[C@@H](CCN1CCC2(CC1)CN(S(C)(=O)=O)c1ccccc12)c1cccc(Cl)c1)S(=O)(=O)c1ccccc1` gave an inhibition in assay [4] of 12%.

For the compound `CN(C[C@@H](CCN1CCC(C(C)(C)C)CC1)c1cccc(Cl)c1)S(=O)(=O)c1ccccc1`, the inhibition in assay [4] came to 40%.
